The results in this text go back to patent US6727038B1, “Photodefineable compositions” (Dow Global Technologies Inc., priority 1995, dated 2004).

Format in all cases: physicochemical
Series [1] is described as follows: Speed of dissolution in DVS resin/mesitylene. The conditions noted are these: shaken at room temperature. On the procedure:
BAC-E, up to four weight percent, is added to a mixture of 45 weight percent DVS resin in mesitylene and shaken at room temperature. The BAC-E dissolves in thirty minutes. BAC-M, at 2.0 weight percent is added to a mixture of 45 weight percent DVS resin in mesitylene and shaken at room temperature. The BAC-M requires more than eight hours of shaking to dissolve.

The nature of series [2]: Solubility of bis azides in mesitylene and in DVS resin/mesitylene mixture. The conditions noted are these: for Solubility In Mesitylene: in mesitylene at 25° C.; for Solubility In Mixture: mixture of 45 weight percent DVS resin in mesitylene at 10° C., weight percent based on total weight of mixture. How it is done:
The solubility of various bis azides are determined in mesitylene at 25° C. and in a mixture of 45 weight percent DVS resin in mesitylene at 10° C. The results are shown in Table I. BAC-M is 2,6-bis(4-azidobenzylidene)-4-methylcyclohexanone and differs from the bis azide of the invention by having a methyl substituent on the cyclohexanone ring instead of ethyl. BAC-P is 2,6-bis(4-azidobenzylidene)-4-n-propyl cyclohexanone and differs from the bis azide of the invention by having an n-propyl substituent on the cyclohexanone ring instead of ethyl. The weight percent in the mixture is calculated based on the total weight of mixture.

Series [3] in a line: Storage at -15° C., precipitate formation. On the procedure:
A formulation containing 3.6 weight percent BAC-E in a mixture of 45 weight percent DVS resin in mesitylene is stored for more than five months at −15° C. […] A formulation containing 4.05 weight percent BAC-E in a mixture of 45 weight percent DVS resin in mesitylene is stored at −15° C. A precipitate forms in three days. A formulation containing 2.0 weight percent BAC-M in a mixture of 45 weight percent DVS resin in mesitylene is stored at −15° C. A precipitate forms in less than ten days.

`CCC1C/C(=C\c2ccc(N=[N+]=[N-])cc2)C(=O)/C(=C/c2ccc(N=[N+]=[N-])cc2)C1` (stereo not shown) [BAC-E, 2,6-bis(4-azidobenzylidene)-4-ethylcyclohexanone]: the time to dissolve entry in series [1] (up to four weight percent in 45 weight percent DVS resin in mesitylene) is listed as “thirty”. In series [2], the “Solubility In Mesitylene” value was determined as 14 g/100 mL and the “Solubility In Mixture” value is given as 10.4 Wt %. Further, the “precipitate formation on storage” value in series [3] (3.6 weight percent BAC-E in 45 weight percent DVS resin in mesitylene, stored more than five months at -15° C.) was “No precipitate forms”.
For `CCCC1CC(=Cc2ccc(N=[N+]=[N-])cc2)C(=O)C(=Cc2ccc(N=[N+]=[N-])cc2)C1` (stereo not shown) [BAC-P, 2,6-bis(4-azidobenzylidene)-4-n-propyl cyclohexanone], in series [2], the “Solubility In Mesitylene” value turned out to be 3.5 g/100 mL and the “Solubility In Mixture” value turned out to be 1.7 Wt %.
As to `CC1CC(=Cc2ccc(N=[N+]=[N-])cc2)C(=O)C(=Cc2ccc(N=[N+]=[N-])cc2)C1` (stereo not shown) [BAC-M, 2,6-bis(4-azidobenzylidene)-4-methylcyclohexanone], in series [1] (2.0 weight percent in 45 weight percent DVS resin in mesitylene), the “time of shaking to dissolve” value is “more than eight”. Further, in series [2], the “Solubility In Mesitylene” value worked out at 1.7 g/100 mL and the “Solubility In Mixture” value is reported as 1.0 Wt %. Further, the “time until a precipitate forms” value in series [3] (2.0 weight percent BAC-M in 45 weight percent DVS resin in mesitylene, stored at -15° C.) is listed as “less than ten”.
